Our source for the IC50 values is patent publication US11465981B2, “Heterocyclic compounds as immunomodulators” (Incyte Corporation, priority 2016, dated 2022).

pIC50: −log10 of the molar value.

The target of this experiment is PD-1/PD-L1 protein/protein interaction (Homo sapiens (Human), UniProt Q9NZQ7). Briefly: PD-1/PD-L1 Homogeneous Time-Resolved Fluorescence (HTRF) Binding Assay. As to conditions: recombinant human PD-1 (Fc tag) 3 nM, human PD-L1 (His-tag) 10 nM, 25° C., PBS pH 7.4. As for the experimental part:
Example A. PD-1/PD-L1 Homogeneous Time-Resolved Fluorescence (HTRF) Binding Assay
The assays were conducted in a standard black 384-well polystyrene plate with a final volume of 20 μL. Inhibitors were first serially diluted in DMSO and then added to the plate wells before the addition of other reaction components. The final concentration of DMSO in the assay was 1%. The assays were carried out at 25° C. in the PBS buffer (pH 7.4) with 0.05% Tween-20 and 0.1% BSA. Recombinant human PD-L1 protein (19-238) with a His-tag at the C-terminus was purchased from AcroBiosystems (PD1-H5229). Recombinant human PD-1 protein (25-167) with Fc tag at the C-terminus was also purchased from AcroBiosystems (PD1-H5257). PD-L1 and PD-1 proteins were diluted in the assay buffer and 10 μL was added to the plate well. Plates were centrifuged and proteins were preincubated with inhibitors for 40 minutes. The incubation was followed by the addition of 10 μL of HTRF detection buffer supplemented with Europium cryptate-labeled anti-human IgG (PerkinElmer-AD0212) specific for Fc and anti-His antibody conjugated to SureLight®-Allophycocyanin (APC, PerkinElmer-AD0059H). After centrifugation, the plate was incubated at 25° C. for 60 min. before reading on a PHERAstar FS plate reader (665 nm/620 nm ratio). Final concentrations in the assay were […], 10 nM PD-L1, 1 nM europium anti-human IgG and 20 nM anti-His-Allophycocyanin. IC50 determination was performed by fitting the curve of percent control activity versus the log of the inhibitor concentration using the GraphPad Prism 5.0 software.
(In general: Time-resolved FRET reads energy transfer from a long-lived donor to a nearby acceptor.)

Chain of PD-1/PD-L1 protein/protein interaction (Q9NZQ7 19-238): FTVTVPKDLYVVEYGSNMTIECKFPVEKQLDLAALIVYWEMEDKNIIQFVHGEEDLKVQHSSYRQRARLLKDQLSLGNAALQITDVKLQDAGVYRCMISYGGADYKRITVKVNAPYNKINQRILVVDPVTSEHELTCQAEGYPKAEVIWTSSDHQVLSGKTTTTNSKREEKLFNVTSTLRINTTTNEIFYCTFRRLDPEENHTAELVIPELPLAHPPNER

The pIC50 is the IC50 on a negative log10 scale, so that one unit is a factor of ten. For the compound `Cc1c(NC(=O)c2ccc(CNCCO)cn2)cccc1-c1cccc(NC(=O)c2ccc(CNCCO)cn2)c1Cl` [Example 1, N,N′-(2-chloro-2′-methylbiphenyl-3,3′-diyl)bis(5-((2-hydroxyethylamino)methyl)picolinamide)], the negative logarithm of the IC50 (pIC50) is ≥ 8.00.
As for `Cc1c(NC(=O)c2ccc(CN3CCCC[C@H]3C(=O)O)cn2)cccc1-c1cccc(NC(=O)c2ccc(CN3CCCC[C@H]3C(=O)O)cn2)c1Cl` [Example 2, (2S,2'S)-1,1′-(6,6′-(2-chloro-2′-methylbiphenyl-3,3′-diyl)bis(azanediyl)bis(oxomethylene)bis(pyridine-6,3-diyl))bis(methylene)dipiperidine-2-carboxylic Acid], the pIC50 is ≥ 8.00.
In the case of `Cc1c(NC(=O)c2ccc(CN3CCN(C)C3=O)cn2)cccc1-c1cccc(NC(=O)c2ccc(CNCCO)cn2)c1Cl` [Example 3, N-(2-chloro-2′-methyl-3′-(5-((3-methyl-2-oxoimidazolidin-1-yl)methyl)picolinamido)biphenyl-3-yl)-5-((2-hydroxyethylamino)methyl)picolinamide], the pIC50 was ≥ 8.00.
For `Cc1c(NC(=O)c2ccc(CN3CCN(C)C3=O)cn2)cccc1-c1cccc(NC(=O)c2ccc(CN3CC[C@@H](O)C3)cn2)c1Cl` [Example 4, (R)—N-(2-chloro-2′-methyl-3′-(5-((3-methyl-2-oxoimidazolidin-1-yl)methyl)picolinamido)biphenyl-3-yl)-5-((3-hydroxypyrrolidin-1-yl)methyl)picolinamide] the value was ≥ 8.00.
Take `Cc1c(NC(=O)c2ccc(CN3CCOC3=O)cn2)cccc1-c1cccc(NC(=O)c2ccc(CNCCO)cn2)c1Cl` [Example 5, N-(2-chloro-2′-methyl-3′-(5-((2-oxooxazolidin-3-yl)methyl)picolinamido)biphenyl-3-yl)-5-((2-hydroxyethylamino)methyl)picolinamide]: the pIC50 is ≥ 8.00.
Next, `Cc1c(NC(=O)c2ccc(CN3CCOC3=O)cn2)cccc1-c1cccc(NC(=O)c2ccc(CN3CC[C@@H](O)C3)cn2)c1Cl` [Example 6, (R)—N-(2-chloro-2′-methyl-3′-(5-((2-oxooxazolidin-3-yl)methyl)picolinamido)biphenyl-3-yl)-5-((3-hydroxypyrrolidin-1-yl)methyl)picolinamide]: ≥ 8.00; `Cc1c(NC(=O)c2ccc(CN3CCCC[C@H]3C(=O)O)cn2)cccc1-c1cccc(NC(=O)c2ccc(CNCCO)cn2)c1Cl` [Example 7, (S)-1-((6-(2′-chloro-3′-(5-((2-hydroxyethylamino)methyl)picolinamido)-2-methylbiphenyl-3-ylcarbamoyl)pyridin-3-yl)methyl)piperidine-2-carboxylic Acid]: ≥ 8.00.
Next, `Cc1c(NC(=O)c2ccc(CN3CC[C@H](C(=O)O)C3)cn2)cccc1-c1cccc(NC(=O)c2ccc(CN3CC[C@@H](O)C3)cn2)c1Cl` [Example 8, (S)-1-((6-(2′-chloro-3′-(5-(((R)-3-hydroxypyrrolidin-1-yl)methyl)picolinamido)-2-methylbiphenyl-3-ylcarbamoyl)pyridin-3-yl)methyl)pyrrolidine-3-carboxylic Acid]: ≥ 8.00; `Cc1c(NC(=O)c2ccc(CN3CCC(C(=O)O)CC3)cn2)cccc1-c1cccc(NC(=O)c2ccc(CN3CC[C@@H](O)C3)cn2)c1Cl` [Example 9, (R)-1-((6-(2′-chloro-3′-(5-((3-hydroxypyrrolidin-1-yl)methyl)picolinamido)-2-methylbiphenyl-3-ylcarbamoyl)pyridin-3-yl)methyl)piperidine-4-carboxylic Acid]: ≥ 8.00.
Turning to `Cc1c(NC(=O)c2ccc(CN3CC(C(=O)O)C3)cn2)cccc1-c1cccc(NC(=O)c2ccc(CN3CC[C@@H](O)C3)cn2)c1Cl` [Example 10, (R)-1-((6-(2′-chloro-3′-(5-((3-hydroxypyrrolidin-1-yl)methyl)picolinamido)-2-methylbiphenyl-3-ylcarbamoyl)pyridin-3-yl)methyl)azetidine-3-carboxylic Acid], the pIC50 was ≥ 8.00.
As to `O=C(Nc1cccc(-c2cccc(NC(=O)c3nc4c(s3)CNCC4)c2F)c1Cl)c1ccc(CN2CCCC[C@H]2C(=O)O)cn1` [Example 11, (S)-1-((6-((2-chloro-2′-fluoro-3′-(4,5,6,7-tetrahydrothiazolo[5,4-c]pyridine-2-carboxamido)-[1,1′-biphenyl]-3-yl)carbamoyl)pyridin-3-yl)methyl)piperidine-2-carboxylic Acid], the pIC50 is ≥ 8.00.
Regarding `Cc1cc(C(=O)Nc2cccc(-c3cccc(NC(=O)c4ccc(CN5CCCC5)cn4)c3Cl)c2C)ncc1CN1CCCC[C@H]1C(=O)O` [Example 12, (S)-1-((6-((2′-chloro-2-methyl-3′-(5-(pyrrolidin-1-ylmethyl)picolinamido)-[1,1′-biphenyl]-3-yl)carbamoyl)-4-methylpyridin-3-yl)methyl)piperidine-2-carboxylic acid], the pIC50 was ≥ 8.00.
Regarding `COc1ccnc(C(=O)Nc2cccc(-c3cccc(NC(=O)c4cc(C)c(CN5CCCC[C@H]5C(=O)O)cn4)c3Cl)c2C)c1` [Example 13, (S)-1-((6-((2-chloro-3′-(4-methoxypicolinamido)-2′-methyl-[1,1′-biphenyl]-3-yl)carbamoyl)-4-methylpyridin-3-yl)methyl)piperidine-2-carboxylic Acid], the pIC50 is ≥ 8.00.
